These results are taken from patent US5245050A, “Derivatives of physiologically active substance ML-236B and process for production thereof” (Tobishi Yakuhin Kogyo Kabushiki Kaisha, priority 1988, dated 1993).

This assay concerns the target T1, HMG-CoA reductase (Rattus norvegicus, UniProt P51639).
T1 construct: 0.6 mg/ml of rat liver microsome fraction; from tissue; host or cells: rat liver (microsome fraction)
T1 sequence (P51639 1-887): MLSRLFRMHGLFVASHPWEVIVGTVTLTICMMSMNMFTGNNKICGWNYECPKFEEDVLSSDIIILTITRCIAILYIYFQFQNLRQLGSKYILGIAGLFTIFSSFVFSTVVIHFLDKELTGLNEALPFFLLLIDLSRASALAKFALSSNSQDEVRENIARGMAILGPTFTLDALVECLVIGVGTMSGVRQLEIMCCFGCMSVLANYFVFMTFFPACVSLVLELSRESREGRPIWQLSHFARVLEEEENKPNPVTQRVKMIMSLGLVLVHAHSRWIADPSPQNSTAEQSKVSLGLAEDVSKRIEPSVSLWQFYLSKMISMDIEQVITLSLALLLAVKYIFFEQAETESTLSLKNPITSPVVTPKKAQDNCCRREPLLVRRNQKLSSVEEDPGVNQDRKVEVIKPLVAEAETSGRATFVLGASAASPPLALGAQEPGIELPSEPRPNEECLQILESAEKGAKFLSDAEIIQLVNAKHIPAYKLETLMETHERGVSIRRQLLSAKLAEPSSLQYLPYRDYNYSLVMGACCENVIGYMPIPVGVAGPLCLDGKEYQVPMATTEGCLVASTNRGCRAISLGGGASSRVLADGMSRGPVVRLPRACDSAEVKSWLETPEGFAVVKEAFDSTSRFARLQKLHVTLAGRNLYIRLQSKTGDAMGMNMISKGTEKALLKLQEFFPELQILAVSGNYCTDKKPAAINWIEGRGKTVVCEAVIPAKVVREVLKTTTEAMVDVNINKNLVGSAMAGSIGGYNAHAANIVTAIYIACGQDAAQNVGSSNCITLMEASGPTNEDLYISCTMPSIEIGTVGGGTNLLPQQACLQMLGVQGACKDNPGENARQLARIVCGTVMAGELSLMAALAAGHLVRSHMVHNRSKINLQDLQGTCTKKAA
As to the kind of experiment: HMG-CoA reductase inhibitory activity ([14C]HMG-CoA to [14C]mevalonic acid, rat liver microsome fraction). Format: biochemical. Conditions: for remaining activity at 0.1 µg/mL: 0.1 μg/ml; for IC50: rat liver microsome fraction, 37° C., 30 minutes, read-out: I50 (amount of sample necessary to inhibit the HMG-CoA reductase activity to 50%) (converted); for remaining activity at 10 µg/mL: 10 μg/ml. As to the method:
The HMG-CoA reductase activity can be determined by using [^14 C] HMG-CoA as a substrate and measuring the resulting [^14 C] mevalonic acid (Kuroda and Endo, Biochem Biophys Acta, 486, 70-81), as described in detail in the following.
A reaction mixture contains 100 mM of potassium phosphate buffer (pH 7.4), 10 mM of EDTA, 10 mM of dithiothreitol, 10 mM of NADPH, 0.11 mM of DL-[3-^14 C] HMG-CoA (4.5 mCi/mmol), and 0.6 mg/ml of rat liver microsome fraction. The final volume of reaction mixture is 50 μl including 1 μl of a methanol solution of a test sample. A reaction is started by adding the substrate HMG-CoA, continued at 37° C. for 30 minutes, and terminated by adding 10 μl of 2N hydrochloric acid solution To this reaction mixture is added 20 μl of 100 mM [5-^3 H] mevaronic acid (22.7 μCi/mmol), and the reaction is carried out at 37° C. for a further 15 minutes. Using 40 μl of this reaction mixture as a carrier, 5 μl of 200 mM mevaronic acid (lactone type) is spotted on a silica gel plate, and after development by benzene/acetone (1:1) mixture, a spot of mevaronic acid is peeled off and suspended in a liquid scintillator to measure the radio activity thereof. The inhibitory activity is expressed by an amount of a sample necessary to inhibit the HMG-CoA reductase activity to 50% (I50 value).
In general terms: Liver microsomes are vesicles of endoplasmic reticulum, rich in cytochrome P450 enzymes.

Setting [1] is: read-out: Enzyme activity (% relating to control).

`CCC(C)C(=O)OC1CCC2C(F)(F)C23C=CC(C)C(CCC2CC(O)CC(=O)O2)C13` (stereo not drawn) [(1)]: the IC50 is 681 nM. In addition, the remaining activity at 0.1 µg/mL under setting [1] was determined as 74%. For the same compound, where the note is “1 μg/ml, read-out: Enzyme activity (% relating to control)”, the remaining activity at 1 µg/mL amounted to 27%.

As to `CCC(C)C(=O)OC1CCC2CC23C=CC(C)C(CCC2CC(O)CC(=O)O2)C13` (stereo not drawn) [(4)], the IC50 was 544 nM. Under setting [1], the remaining activity at 0.1 µg/mL was found to be 63% and the remaining activity at 10 µg/mL amounted to 7.6%.

Regarding `CCC(C)C(=O)OC1CCC2C(Cl)(Cl)C23C=CC(C)C(CCC(O)CC(O)CC(N)=O)C13` (stereo not drawn) [(7)], the IC50 was more than 2040 nM. Under setting [1], the remaining activity at 0.1 µg/mL came to 98% and the remaining activity at 10 µg/mL was found to be 30%.

Take `CCC(C)C(=O)OC1CCC2C(Cl)C23C=CC(C)C(CCC2CC(O)CC(=O)O2)C13` (stereo not drawn) [Compound (6)]: the IC50 was 683 nM. Moreover, under setting [1], the remaining activity at 0.1 µg/mL came out at 71% and the remaining activity at 10 µg/mL stood at 4.7%.
